Measurements reported in ChEMBL document CHEMBL1201862, “PubChem BioAssay data set” (2004).
The source made the active and inactive calls.

How the values were obtained:
[1] = molecular target: ADP-ribosylation factor GTPase-activating protein 1 (Rattus norvegicus, UniProt Q62848); assay: Fluorescence polarization-based biochemical high throughput dose response screening assay to identify inhibitors of ADP-ribosylation factor GTPase activating protein 1 (ARFGAP1).; format: functional
[2] = MITF: Counter assay: A375 proliferation Measured in Cell-Based System Using Plate Reader - 2084-03_Inhibitor_Dose_DryPowder_Activity_Set8.; format: functional; settings: A-375
[3] = inhibitors of TRPM1-promoter reporter in SK-MEL-5 – cell-based, luciferase, dry powder, set 8, MITF inhibitor project, dose response (AID 624430); format: functional
[4] = MITF Orthogonal Assay: SK-MEL-5 CTG Assay Measured in Cell-Based System Using Plate Reader - 2084-02_Inhibitor_Dose_DryPowder_Activity_Set7.; format: functional
[5] = molecular target: Endoplasmic reticulum aminopeptidase 1 (Homo sapiens, UniProt Q9NZ08); assay: inhibition of human ERAP1 enzyme activity – biochemical, cherry-pick, set 2, plate reader, dose response (AID 743314)
[6] = viability of PTEN-deleted HCT116 cells – cell-based, HCT116 PTEN knockout, dose response (AID 1047); format: functional;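 further: HCT116 colon tumor cells with PTEN knocked out; cells exposed to compound for 60 hours before readout; potency for loss of cell viability measured by luminescence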
[7] = viability of HCT116 lacking mutant beta-catenin – cell-based, human colon tumor, dose response (AID 1045); format: functional;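 further: HCT116 colon tumor cells with beta catenin knocked out; cells exposed to compound for 60 hours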
[8] = molecular target: COUP transcription factor 2 (Homo sapiens, UniProt P24468); assay: Luminescence-based cell-based high throughput dose response assay to identify inhibitors of COUP-TFII (NR2F2).; format: functional;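 further: HEK293 cells transiently cotransfected with COUP-TFII expression vector and reporter; luciferase reporter luminescence driven by COUP-TFII from the pX2-168 reporter plasmid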
[9] = HEK-293T cell viability reduction – luminescence, B-cell screen hits, cytotoxicity control for BCR NF-kB inhibitor project, dose response (AID 489021); format: functional, cell-based;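 further: HEK-293T cells carrying an NF-kB luciferase reporter; cells exposed to compound for about 14 hours before viability readout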
[10] = inhibitors of EBV LMP1 NF-kappaB signaling – cell-based, luciferase reporter, luminescence, dry powder, set 2, dose response (AID 624376); format: functional
[11] = LMP1-induced NF-kB luciferase signal inhibition – cell-based, EBV LMP1, dry powder, set 2, dose response (AID 624361); format: functional
[12] = activation of miR-122 Renilla sensor silencing – cell-based, Huh7 psiCHECK-miR122, Renilla luciferase, cherry-picked, dose response (AID 651956); format: functional;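 further: huh7 hepatoma cells stably carrying a psiCHECK-2 miR-122 sensor plasmid; renilla luciferase signal reporting endogenous miR-122 activity after 48 h compound exposure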
[13] = toxicity toward immortalized ovarian surface epithelium – cell-based, plate reader, dry powder samples, cytotoxicity control for PAX8 inhibitor project, dose response (AID 743045); format: functional
[14] = IGROV1 cell killing – plate reader, dry powder samples, PAX8 inhibitor project, dose response (AID 743043); format: functional, cell-based; settings: IGROV-1
[15] = OVCAR8 cell viability loss – plate reader, dry powder samples, PAX8 project, dose response (AID 743197); format: functional, cell-based; settings: OVCAR-8
[16] = A2780 cell killing – plate reader, dry powder samples, cytotoxicity control, dose response (AID 743046); format: functional, cell-based
[17] = OVCAR-3 cell viability loss – plate reader, dry powder samples, PAX8 inhibitor project, dose response (AID 743044); format: functional, cell-based
Paired box protein Pax-8 = Paired box protein Pax-8 (Homo sapiens, UniProt Q06710); assay: PAX8 transcriptional activity inhibition in RMG-I – RMG-I cells, luciferase, cherry-pick, dose response (AID 687027); format: functional, cell-based;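 further: luciferase reporter driven by Pax8 target thyroperoxidase promoter measured by SteadyGlo luminescence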
Galanin receptor type 3 = Galanin receptor type 3 (Homo sapiens, UniProt O60755); assay: Fluorescence-based cell-based primary high throughput dose response assay to identify antagonists of the Galanin Receptor 3 (GalR3).; format: functional
cells [18] = format: functional, cell-based; settings: HEK-CNG
[19] = molecular target: T1, Scavenger receptor class B member 1 (Mus musculus, UniProt Q61009); assay: blockers of DiI-HDL lipid transfer via SR-BI – cell-based, ldlA[mSR-BI] CHO, DiI fluorescence, dry powder, set 10, dose response (AID 624029); format: functional
[20] = molecular target: T1, Scavenger receptor class B member 1; assay: mouse SR-BI DiI-HDL transfer blockers – ldlA[mSR-BI] CHO cells, fluorescence plate reader, dry powder, set 9, dose response (AID 623880); format: functional, cell-based
[21] = molecular target: T2, Heat shock factor protein 1 (Mus musculus, UniProt P38532); assay: decrease of HSF1-responsive luciferase luminescence – cell-based, NIH3T3, dose retest, confirmation (AID 2382); format: functional;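 further: NIH3T3 fibroblasts with HSF1-driven luciferase reporter stressed by proteasome inhibitor MG132; luminescence from HSF1-driven luciferase expression after 8 hours of MG132 stress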
T2 sequence (P38532 whole entry): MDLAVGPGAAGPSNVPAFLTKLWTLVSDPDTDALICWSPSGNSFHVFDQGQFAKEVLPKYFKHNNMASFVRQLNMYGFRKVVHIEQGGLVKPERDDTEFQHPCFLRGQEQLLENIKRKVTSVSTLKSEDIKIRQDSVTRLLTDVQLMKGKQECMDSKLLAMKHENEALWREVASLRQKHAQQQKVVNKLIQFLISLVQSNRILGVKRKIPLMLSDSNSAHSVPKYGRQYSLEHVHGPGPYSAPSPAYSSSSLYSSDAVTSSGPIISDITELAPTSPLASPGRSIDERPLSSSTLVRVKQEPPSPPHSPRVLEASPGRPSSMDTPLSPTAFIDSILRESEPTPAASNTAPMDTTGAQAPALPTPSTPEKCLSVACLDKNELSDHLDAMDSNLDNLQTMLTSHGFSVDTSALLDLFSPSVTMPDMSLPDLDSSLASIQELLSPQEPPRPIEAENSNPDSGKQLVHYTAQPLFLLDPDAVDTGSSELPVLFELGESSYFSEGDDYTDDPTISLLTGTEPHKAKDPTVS

cells [22] = settings: HEK293
[23] = molecular target: T3, Trace amine-associated receptor 1 (Homo sapiens, UniProt Q96RJ0); assay: Fluorescence-based cell-based high throughput dose response assay to identify agonists of the human trace amine associated receptor 1 (TAAR1).; format: functional
T3 sequence (Q96RJ0 whole entry): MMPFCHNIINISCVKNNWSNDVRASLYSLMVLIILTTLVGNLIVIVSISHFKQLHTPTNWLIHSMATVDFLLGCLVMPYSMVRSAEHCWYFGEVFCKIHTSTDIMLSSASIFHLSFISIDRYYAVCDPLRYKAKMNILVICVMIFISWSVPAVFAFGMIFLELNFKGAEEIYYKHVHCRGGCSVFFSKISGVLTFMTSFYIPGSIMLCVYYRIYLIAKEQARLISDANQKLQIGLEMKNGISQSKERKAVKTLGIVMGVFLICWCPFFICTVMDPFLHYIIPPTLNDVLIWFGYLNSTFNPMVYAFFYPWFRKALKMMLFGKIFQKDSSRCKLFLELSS

cells [24] = format: functional, cell-based
[25] = molecular target: T3, Trace amine-associated receptor 1; assay: Counterscreen for agonists of the human trace amine associated receptor 1 (hTAAR1): Fluorescence-based cell-based high throughput dose response assay to identify hTAAR1 agonist that also desensitize TAAR1 receptor response.; format: functional
cells [26] = format: functional, cell-based; remark: listed apart in the source

T1 sequence (Q61009 whole entry): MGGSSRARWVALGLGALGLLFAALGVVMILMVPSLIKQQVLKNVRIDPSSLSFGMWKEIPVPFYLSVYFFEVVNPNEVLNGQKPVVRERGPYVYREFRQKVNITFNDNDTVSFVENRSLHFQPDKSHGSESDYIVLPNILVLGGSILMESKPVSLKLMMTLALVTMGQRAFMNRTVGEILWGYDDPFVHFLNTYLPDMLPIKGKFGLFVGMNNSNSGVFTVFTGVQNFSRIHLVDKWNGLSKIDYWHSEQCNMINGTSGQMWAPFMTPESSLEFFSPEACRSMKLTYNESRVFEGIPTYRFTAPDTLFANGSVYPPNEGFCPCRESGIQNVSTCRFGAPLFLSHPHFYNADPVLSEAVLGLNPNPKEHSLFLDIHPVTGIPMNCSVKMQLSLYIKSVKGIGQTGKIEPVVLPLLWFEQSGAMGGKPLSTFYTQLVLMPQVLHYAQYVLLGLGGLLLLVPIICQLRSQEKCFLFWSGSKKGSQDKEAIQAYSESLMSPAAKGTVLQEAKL
Galanin receptor type 3, sequence (O60755 whole entry): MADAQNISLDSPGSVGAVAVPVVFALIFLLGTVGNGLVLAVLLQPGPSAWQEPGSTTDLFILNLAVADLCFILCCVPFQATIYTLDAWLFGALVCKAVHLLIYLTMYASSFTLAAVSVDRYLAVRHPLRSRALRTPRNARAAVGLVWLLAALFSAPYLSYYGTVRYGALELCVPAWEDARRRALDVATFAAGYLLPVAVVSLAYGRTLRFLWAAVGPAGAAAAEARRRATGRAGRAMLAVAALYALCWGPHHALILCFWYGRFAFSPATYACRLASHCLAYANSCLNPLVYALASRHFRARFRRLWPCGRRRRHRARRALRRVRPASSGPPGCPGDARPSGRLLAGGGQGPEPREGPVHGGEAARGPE
ADP-ribosylation factor GTPase-activating protein 1, sequence (Q62848 whole entry): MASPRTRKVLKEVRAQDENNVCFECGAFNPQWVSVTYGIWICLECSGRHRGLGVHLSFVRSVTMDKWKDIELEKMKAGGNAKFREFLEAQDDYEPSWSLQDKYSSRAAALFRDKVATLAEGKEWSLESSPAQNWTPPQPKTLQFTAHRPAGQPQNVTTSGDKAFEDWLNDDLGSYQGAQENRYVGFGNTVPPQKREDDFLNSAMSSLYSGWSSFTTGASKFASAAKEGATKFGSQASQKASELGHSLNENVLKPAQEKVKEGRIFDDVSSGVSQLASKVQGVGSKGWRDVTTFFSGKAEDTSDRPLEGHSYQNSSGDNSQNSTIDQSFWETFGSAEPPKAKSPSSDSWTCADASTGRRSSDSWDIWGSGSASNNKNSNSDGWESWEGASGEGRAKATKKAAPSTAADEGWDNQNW
Endoplasmic reticulum aminopeptidase 1, sequence (Q9NZ08 whole entry): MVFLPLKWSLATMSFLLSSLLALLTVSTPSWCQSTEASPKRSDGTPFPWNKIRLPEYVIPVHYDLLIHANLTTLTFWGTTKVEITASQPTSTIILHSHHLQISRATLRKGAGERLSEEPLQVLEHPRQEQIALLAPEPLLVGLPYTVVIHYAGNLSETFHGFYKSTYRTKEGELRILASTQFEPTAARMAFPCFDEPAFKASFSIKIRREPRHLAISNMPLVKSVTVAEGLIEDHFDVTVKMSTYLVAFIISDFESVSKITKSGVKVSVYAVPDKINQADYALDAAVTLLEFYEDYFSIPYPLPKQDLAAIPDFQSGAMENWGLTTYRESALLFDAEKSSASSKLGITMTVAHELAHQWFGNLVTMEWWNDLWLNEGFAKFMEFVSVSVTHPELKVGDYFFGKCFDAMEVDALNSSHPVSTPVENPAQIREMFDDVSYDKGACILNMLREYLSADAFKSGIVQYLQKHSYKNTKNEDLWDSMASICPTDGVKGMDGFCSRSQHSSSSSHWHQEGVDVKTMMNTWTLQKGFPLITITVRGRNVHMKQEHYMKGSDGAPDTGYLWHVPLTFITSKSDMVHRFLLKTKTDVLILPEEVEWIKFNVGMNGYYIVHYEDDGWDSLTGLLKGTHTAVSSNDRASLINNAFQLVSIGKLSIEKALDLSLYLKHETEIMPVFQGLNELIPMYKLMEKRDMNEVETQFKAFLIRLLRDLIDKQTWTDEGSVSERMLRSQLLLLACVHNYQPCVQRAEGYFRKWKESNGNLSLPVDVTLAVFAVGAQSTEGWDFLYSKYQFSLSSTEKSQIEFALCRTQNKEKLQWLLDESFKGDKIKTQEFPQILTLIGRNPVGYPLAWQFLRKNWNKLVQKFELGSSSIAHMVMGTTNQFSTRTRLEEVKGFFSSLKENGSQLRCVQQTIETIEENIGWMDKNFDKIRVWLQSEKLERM
Paired box protein Pax-8, sequence (Q06710 whole entry): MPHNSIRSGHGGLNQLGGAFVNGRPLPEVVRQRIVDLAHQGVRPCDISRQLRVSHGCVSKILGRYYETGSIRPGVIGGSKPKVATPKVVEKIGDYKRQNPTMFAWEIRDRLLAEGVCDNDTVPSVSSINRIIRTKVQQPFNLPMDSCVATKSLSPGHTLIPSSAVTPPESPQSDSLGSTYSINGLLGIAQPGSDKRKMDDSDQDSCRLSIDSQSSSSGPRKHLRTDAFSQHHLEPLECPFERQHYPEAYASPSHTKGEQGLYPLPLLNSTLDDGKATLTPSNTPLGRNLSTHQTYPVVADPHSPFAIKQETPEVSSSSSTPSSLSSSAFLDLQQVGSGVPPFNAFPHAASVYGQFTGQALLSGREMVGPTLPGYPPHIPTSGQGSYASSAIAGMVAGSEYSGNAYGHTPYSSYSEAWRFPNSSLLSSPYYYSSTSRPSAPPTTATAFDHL
COUP transcription factor 2, sequence (P24468 whole entry): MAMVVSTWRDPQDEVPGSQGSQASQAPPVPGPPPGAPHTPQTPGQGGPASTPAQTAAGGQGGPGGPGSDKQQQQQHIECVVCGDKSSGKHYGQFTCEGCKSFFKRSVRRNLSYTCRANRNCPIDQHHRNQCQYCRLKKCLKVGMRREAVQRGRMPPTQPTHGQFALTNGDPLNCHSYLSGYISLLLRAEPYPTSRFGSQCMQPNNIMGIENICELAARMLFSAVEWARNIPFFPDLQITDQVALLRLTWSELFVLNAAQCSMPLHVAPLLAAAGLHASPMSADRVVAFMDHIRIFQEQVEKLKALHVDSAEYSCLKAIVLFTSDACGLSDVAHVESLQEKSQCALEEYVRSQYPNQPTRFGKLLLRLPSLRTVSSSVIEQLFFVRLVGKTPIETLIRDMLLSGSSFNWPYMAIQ

## CCN1CCN(C(=O)Cn2ncc3c4cc(C)ccc4nc-3c2O)CC1
[1]
  IC50: 82.7 µM (inactive)

## O=C1C=C(Nc2cccc(Cl)c2)C(=O)c2ccccc21
[2]
  AC50: 22.3 µM (active)
[3]
  AC50: 23.9 µM (active)
[4]
  AC50: 0.683 µM (active)

## Cc1cc(N(C)Cc2ccccc2)nc2cc(O)ccc12
[5]
  AC50: 11.3 µM (active)

## CN(CC1CCCO1)S(=O)(=O)c1ccc(C(=O)Nc2nc3cc4c(cc3s2)OCO4)cc1 (stereo not drawn)
[6]
  EC50: 9.25 µM (active)
[7]
  EC50: 6.11 µM (active)
[8]
  IC50: 2.68 µM (active)
[9]
  IC50: > 80 µM (inactive)

## COc1ccccc1C#Cc1cnc2c(c1)C(=O)N([C@H](C)CO)C[C@H](C)[C@@H](CN(C)C(=O)c1ccc3c(c1)OCO3)O2
[10]
  AbsAC35: 52.21 µM
[11]
  AbsAC35: 41.32 µM
[12]
  AC50: 13.6 µM (active)

## Cc1ccc(S(=O)(=O)Nc2ccc3c(c2)C(=O)N([C@H](C)CO)C[C@H](C)[C@@H](CN(C)S(=O)(=O)c2ccc(F)cc2)OCCCC[C@H](C)O3)cc1
[13]
  AC50: 6.87 µM (active)
[14]
  AC50: 14.8 µM (active)
[15]
  AC50: 11 µM (active)
[16]
  AC50: 7.45 µM (active)
[17]
  AC50: 9 µM (active)
Paired box protein Pax-8
  AC50: 2.11 µM (active)

## Cc1onc(-c2ccccc2Cl)c1C(=O)NNC(=O)c1cccc(F)c1
Galanin receptor type 3
  IC50: > 29.9 µM (inactive)
Cells [18]
  EC50: > 29.9 µM (inactive)

## Cc1noc(C)c1S(=O)(=O)Nc1ccc2c(c1)C(=O)N([C@H](C)CO)C[C@@H](C)[C@H](CN(C)S(=O)(=O)c1ccc(Cl)cc1)O2
[19]
  AC50: 0.123 µM (active)
[20]
  AC50: 0.158 µM (active)

## Cc1cc(-c2ccccc2)c2ccc(NC(=O)C(C)(C)C)nc2n1
[21]
  EC50: > 195 µM (not active)
Cells [22]
  AC50: > 52 µM (inactive)

## Fc1ccccc1N1CCN(C(c2cccs2)c2nnnn2CCc2ccccc2)CC1 (stereo not drawn)
[23]
  EC50: 4.06 µM (active)
Cells [24]
  EC50: > 29.9 µM (inactive)
[25]
  IC50: 6.73 µM (active)
Cells [26]
  IC50: > 29.9 µM (inactive)
